Laboratory results reported in US20240199634A1, “CYCLIC COMPOUNDS AND METHODS OF USING SAME” (SCHRÖDINGER, INC., priority 2021, published 2024).

Columns and labels:
[1] = molecular target: T1, Full length human CDC7 protein co-expressed with DBF4 (Homo sapiens, UniProt O00311); experiment: CDC7 Kinase Biochemical Assay (ADP-Glo, PDKtide substrate); conditions: 0.1 nM CDC7/DBF4, 1 μM ATP, 10 μM PDKtide, 4 h reaction
T1 construct: Full length human CDC7 protein co-expressed with DBF4; purchased SignalChem (China)
Experimental: CDC7 Kinase Biochemical Assay PROTOCOL:
Full length human CDC7 protein co-expressed with DBF4 was purchased from SignalChem (China). CDC7 kinase activity was determined with PDKtide (SignalChem) as a substrate and by measuring ADP production using the ADP-Glo™ Kinase Assay kit (Promega) following the manufacturer's instructions. The kinase reaction was performed using the following conditions: Buffer: 40 mM Tris pH 7.5, 20 mM MgCl2, 0.1 mg/mL BSA and 50 μM DTT. Final reaction mix contained 0.1 nM CDC7/DBF4, 1 μM ATP and 10 μM PDKtide. The kinase reaction time was 4 h. The ADP-Glo signal was measured using an EnVision plate reader (PerkinELmer).
Percent inhibition of CDC7 kinase activity was calculated based on the following formula:
[formula] • SSample: the signal of compounds • SHigh Ctrl: the signal of high control (DMSO) • SLow Ctrl: the signal of low control (positive control CDC7 inhibitor)

[2] = test system: phosphorylation of MCM2 S53 in colo205 cells; experiment: Phosphorylated MCM2 MSD Electrochemiluminescence Assay; format: cell-based; conditions: Homo sapiens, COLO 205, 20 h incubation, read-out: pMCM2-S53 MSD Colo205 IC50
Experimental: Phosphorylated MCM2 MSD Electrochemiluminescence Assay
The effect of CDC7 inhibitors on cellular phosphorylation of the CDC7 substrate MCM2 was determined using the following protocol:
A total of 40,000 colo205 cells in 100 μL culture medium (1640 medium+10% Fetal bovine serum+1% Penicillin-Streptomycin) were plated in 96-well cell culture plates and allowed to attach for 6 hours. 3-fold serial dilutions of test compounds were prepared in completed PBS at 25× final concentration and 4 μL of each were added to the cells and incubated for 20 hours at 37° C., 5% CO2. Each concentration was tested in duplicate. After the 20 h incubation, cells were washed with 150 μL PBS and lysed with 40 μL MSD lysis buffer (obtained from Meso Scale Diagnostics) supplied with 1× complete ULTRA cocktail inhibitor (obtained from Roche). To detect phosphorylation of MCM2 S53, 30 μL of capture antibody solution (obtained from Abnova, catalog number H00004171-M01, 1:500) was added to each well of MULTI-ARRAY 96-well High Bind Plate, and incubated overnight. The antibody solution was removed, wells blocked with BSA solution and plates washed, followed by addition of 30 μl of cell lysate per well. After 2 h incubation, plates were washed. 30 μL of 1× detection antibody solution (obtained from Abcam, catalog number ab109133, 1:1000) was then added to each well and incubate for 1 hour. Plates were washed and 30 μL of 1× secondary antibody solution (obtained from MSD, catalog number R32AB-1, 1:5000) was added to each well and incubate for 1 hour. Plates were washed and 150 μL of 1× Read Buffer T was added to each well of the MSD plate. The electrochemiluminescence signal was measured on a MESO SECTOR 5600 plate reader. The percentage of remaining phosphorylated MCM2 signal was calculated following the equation below.
[formula] • HC (high control): Cells treated with DMSO • Cpds: Cells treated with test compounds • LC (low control): Cells treated with positive control CDC7 inhibitor

T1 sequence (O00311 whole entry): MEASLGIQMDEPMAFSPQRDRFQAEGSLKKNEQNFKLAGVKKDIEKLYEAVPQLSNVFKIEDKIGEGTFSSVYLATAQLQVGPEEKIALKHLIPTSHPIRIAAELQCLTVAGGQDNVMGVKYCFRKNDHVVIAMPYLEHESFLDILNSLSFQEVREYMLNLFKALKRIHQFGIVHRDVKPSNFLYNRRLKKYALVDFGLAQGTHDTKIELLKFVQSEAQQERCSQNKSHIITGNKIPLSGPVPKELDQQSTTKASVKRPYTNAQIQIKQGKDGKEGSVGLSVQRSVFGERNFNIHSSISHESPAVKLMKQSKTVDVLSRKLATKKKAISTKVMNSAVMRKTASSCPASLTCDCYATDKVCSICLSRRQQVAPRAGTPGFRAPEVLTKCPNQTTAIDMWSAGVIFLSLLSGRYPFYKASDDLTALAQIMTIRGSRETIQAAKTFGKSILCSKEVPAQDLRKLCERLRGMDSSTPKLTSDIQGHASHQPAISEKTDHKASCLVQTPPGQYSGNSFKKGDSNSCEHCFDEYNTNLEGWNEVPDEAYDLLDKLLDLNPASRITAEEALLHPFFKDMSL
T1 sequence (Q9UBU7 whole entry partner): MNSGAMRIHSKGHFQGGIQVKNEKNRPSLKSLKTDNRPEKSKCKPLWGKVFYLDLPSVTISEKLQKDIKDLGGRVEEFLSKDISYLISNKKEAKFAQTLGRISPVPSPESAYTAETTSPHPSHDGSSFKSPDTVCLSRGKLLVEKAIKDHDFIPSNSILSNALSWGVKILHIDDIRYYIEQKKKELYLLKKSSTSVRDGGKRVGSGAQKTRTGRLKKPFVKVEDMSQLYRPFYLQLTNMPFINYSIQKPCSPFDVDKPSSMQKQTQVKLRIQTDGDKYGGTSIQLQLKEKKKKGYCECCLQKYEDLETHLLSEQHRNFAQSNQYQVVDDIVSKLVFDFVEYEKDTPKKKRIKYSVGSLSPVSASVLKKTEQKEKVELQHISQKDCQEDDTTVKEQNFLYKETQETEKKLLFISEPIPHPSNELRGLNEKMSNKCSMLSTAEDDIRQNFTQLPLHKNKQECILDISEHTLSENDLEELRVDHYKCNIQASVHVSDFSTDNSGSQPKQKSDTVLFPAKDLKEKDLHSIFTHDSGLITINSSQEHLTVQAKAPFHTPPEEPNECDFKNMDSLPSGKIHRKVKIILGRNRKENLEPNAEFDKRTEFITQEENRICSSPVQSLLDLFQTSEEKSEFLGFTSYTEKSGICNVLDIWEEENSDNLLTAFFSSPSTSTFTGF

Compound	IC50 [1] [nM]	IC50 [2] [nM]
Cc1n[nH]cc1-c1cc2c3c([nH]c(=O)c2s1)C(O)(C(C)(C)C)COC3 (single isomer, unassigned) [Compound 91]	> 10	≤ 5
CC(C)C1(O)COCc2c1[nH]c(=O)c1sc(-c3c[nH]nc3F)cc21 (single isomer, unassigned) [Compound 27]	≤ 1	≤ 5
CC(C)C1(O)COCc2c1[nH]c(=O)c1sc(-c3ccns3)cc21 (single isomer, unassigned) [Compound 46]	≤ 1	5 to 20
O=c1[nH]c2c(c3cc(-c4cn[nH]c4)sc13)C1CCC2(O)CC1 [Compound 8, 6-hydroxy-2-(1H-pyrazol-4-yl)-6,7,8,9-tetrahydro-6,9-ethanothieno[2,3-c]quinolin-4(5H)-one]	≤ 1	20 to 50
CC1(C)COCc2c1[nH]c(=O)c1sc(-c3cn[nH]c3)cc21 [Compound 58, 4,4-dimethyl-8-(1H-pyrazol-4-yl)-1,3,4,5-tetrahydro-6H-pyrano[4,3-b]thieno[3,2-d]pyridin-6-one]	1 to 10	> 50
Cc1n[nH]cc1-c1cc2c3c([nH]c(=O)c2s1)C(O)(C(F)(F)F)COC3 (single isomer, unassigned) [Compound 32]	≤ 1	5 to 20
CC(C)(C)C1(O)COCc2c1[nH]c(=O)c1sc(-c3ccncc3F)cc21 (single isomer, unassigned) [Compound 59]	≤ 1	≤ 5
Cc1cnccc1-c1cc2c3c([nH]c(=O)c2s1)C(O)(C(C)(C)C)COC3 (single isomer, unassigned) [Compound 69]	≤ 1	5 to 20
CC(C)(C)C1(O)CNCc2c1[nH]c(=O)c1sc(-c3cn[nH]c3)cc21 (centres unmarked) [Compound 93, 4-(tert-butyl)-4-hydroxy-8-(1H-pyrazol-4-yl)-1,3,4,5-tetrahydrothieno[2,3-c][1,6]naphthyridin-6(2H)-one]	≤ 1	20 to 50
CC(C)C1(O)COCc2c1[nH]c(=O)c1sc(-c3cn[nH]c3)cc21 (single isomer, unassigned) [Compound 16]	≤ 1	≤ 5
CC(C)(C)[C@@]1(O)COCc2c1[nH]c(=O)c1sc(-c3ccncc3)cc21 (single isomer, unassigned) [Compound 22]	≤ 1	≤ 5
O=c1[nH]c2c(c3cc(-c4cn[nH]c4)sc13)COCC2(O)C(F)F (single isomer, unassigned) [Compound 42]	≤ 1	20 to 50
COC12CCC(CC1)c1c2[nH]c(=O)c2sc(-c3cn[nH]c3)cc12 [Compound 7, 6-methoxy-2-(1H-pyrazol-4-yl)-6,7,8,9-tetrahydro-6,9-ethanothieno[2,3-c]quinolin-4(5H)-one]	≤ 1	20 to 50
Cn1nccc1-c1cc2c3c([nH]c(=O)c2s1)C(O)(C(F)(F)F)COC3 (single isomer, unassigned) [Compound 30]	≤ 1	> 50
CC(C)(C)[C@@]1(O)COCc2c1[nH]c(=O)c1sc(N3CCOCC3)cc21 [Compound 85, (S)-4-(tert-butyl)-4-hydroxy-8-morpholino-1,3,4,5-tetrahydro-6H-pyrano[4,3-b]thieno[3,2-d]pyridin-6-one]	≤ 1	> 50
COC1(C)CC(F)(F)Cc2c1[nH]c(=O)c1sc(-c3cn[nH]c3)cc21 (single isomer, unassigned) [Compound 52]	1 to 10	
CC(F)(F)CC1(O)COCc2c1[nH]c(=O)c1sc(-c3cn[nH]c3)cc21 (centres unmarked) [Compound 86, 4-(2,2-difluoropropyl)-4-hydroxy-8-(1H-pyrazol-4-yl)-1,3,4,5-tetrahydro-6H-pyrano[4,3-b]thieno[3,2-d]pyridin-6-one]	≤ 1	
CC1(O)CC(F)(F)Cc2c1[nH]c(=O)c1sc(-c3cn[nH]c3)cc21 (single isomer, unassigned) [Compound 55]	1 to 10	
CC(C)(C)[C@@]1(O)COCc2c1[nH]c(=O)c1sc(-c3cn[nH]c3)cc21 (single isomer, unassigned) [Compound 20]	≤ 1	≤ 5
CO[C@H]1COCc2c1[nH]c(=O)c1sc(-c3cn[nH]c3)cc21 (single isomer, unassigned) [Compound 10]	≤ 1	

Compound	IC50 [1] [nM]	IC50 [2] [nM]
COC1(C)CC(F)(F)Cc2c1[nH]c(=O)c1sc(-c3cn[nH]c3)cc21 (single isomer, unassigned) [Compound 53]	≤ 1	
O=c1[nH]c2c(c3cc(-c4cn[nH]c4)sc13)CCCC2(O)C(F)F (single isomer, unassigned) [Compound 37]	≤ 1	5 to 20
CCC1(O)COCc2c1[nH]c(=O)c1sc(-c3cn[nH]c3)cc21 (single isomer, unassigned) [Compound 18]	≤ 1	5 to 20
CC(F)(F)C1(O)COCc2c1[nH]c(=O)c1sc(-c3cn[nH]c3)cc21 (single isomer, unassigned) [Compound 95]	1 to 10	
CC(F)(F)C1(O)COCc2c1[nH]c(=O)c1sc(-c3cn[nH]c3)cc21 (single isomer, unassigned) [Compound 96]	≤ 1	
CC(C)(C)C1(O)COCc2c1[nH]c(=O)c1sc(-c3c[nH]nc3F)cc21 (single isomer, unassigned) [Compound 66]	≤ 1	
O=c1[nH]c2c(c3cc(-c4cn[nH]c4)sc13)CCC[C@H]2O (single isomer, unassigned) [Compound 4]	≤ 1	
C[C@]1(CO)CC(F)(F)Cc2c1[nH]c(=O)c1sc(-c3cn[nH]c3)cc21 (single isomer, unassigned) [Compound 14]	1 to 10	
COC1(C)CCCc2[nH]c(=O)c3sc(-c4cn[nH]c4)cc3c21 (single isomer, unassigned) [Compound 39]	≤ 1	
CC(C)(C)C1(O)COCc2c1[nH]c(=O)c1sc(-c3ccnnc3)cc21 (single isomer, unassigned) [Compound 67]	≤ 1	
O=c1[nH]c2c(c3cc(-c4ccncc4)sc13)C1CCC2(O)CC1 [Compound 9, 6-hydroxy-2-(pyridin-4-yl)-6,7,8,9-tetrahydro-6,9-ethanothieno[2,3-c]quinolin-4(5H)-one]	≤ 1	
CC(C)C1(O)CCCc2c1[nH]c(=O)c1sc(-c3cn[nH]c3)cc21 (single isomer, unassigned) [Compound 87]	≤ 1	
CC(C)C1(O)COCc2c1[nH]c(=O)c1sc(-c3ccncc3)cc21 (single isomer, unassigned) [Compound 44]	≤ 1	5 to 20
CC(C)C1(O)COCc2c1[nH]c(=O)c1sc(-c3ccns3)cc21 (single isomer, unassigned) [Compound 47]	> 10	
O=c1[nH]c2c(c3cc(-c4cn[nH]c4)sc13)CCC[C@H]2N1CCC(F)(F)C1 (single isomer, unassigned) [Compound 5]	≤ 1	
CC(C)(C)C1(O)COCc2c1[nH]c(=O)c1sc(-c3ncncc3Cl)cc21 (single isomer, unassigned) [Compound 63]	≤ 1	
CCC1(O)CC(F)(F)Cc2c1[nH]c(=O)c1sc(-c3cn[nH]c3)cc21 (single isomer, unassigned) [Compound 51]	≤ 1	≤ 5
CCC(C)(C)C1(O)COCc2c1[nH]c(=O)c1sc(-c3cn[nH]c3)cc21 (single isomer, unassigned) [Compound 80]	> 10	
CC1(O)CCCc2c1[nH]c(=O)c1sc(-c3cn[nH]c3)cc21 (single isomer, unassigned) [Compound 41]	1 to 10	> 50
Cn1nccc1-c1cc2c3c([nH]c(=O)c2s1)C(O)(C(C)(C)C)COC3 (single isomer, unassigned) [Compound 89]	≤ 1	5 to 20
